This is an account of results in article PMC9317316, “Synthesis and Evaluation of Some New 4H-Pyran Derivatives as Antioxidant, Antibacterial and Anti-HCT-116 Cells of CRC, with Molecular Docking, Antiproliferative, Apoptotic and ADME Investigations” (Pharmaceuticals, 2022).

SMILES strings stand for the structures.

The nature of experiment [1]: Reducing power assay (FRAC, Fe3+ to Fe2+). The settings on record: 0-1 mg/mL, absorbance 700 nm. In outline:
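Oyaizu method: compound (0–1 mg/mL) incubated with 0.2 M phosphate buffer pH 6.6 and 1% K3Fe(CN)6 at 50 °C for 20 min, then TCA, centrifugation, and 0.1% FeCl3 added to supernatant. Absorbance read at 700 nm; EC50 expressed in mM, BHT as reference.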

The test system of the next experiment is S. enteric (ATCC 43972). Put plainly: Antibacterial agar diffusion method (inhibition zone). It is filed as cell-based. In outline: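 Agar diffusion: compounds applied to top agar seeded with the strain, inhibition zone measured; ampicillin (10 µg/well) as reference. Viability: 2 ×10^7 CFU/mL in BHI shaken with compound 60 min at 37 °C, serially diluted, plated, colonies counted after 24 h at 37 °C; IC50 from residual CFU, mean of three.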

The test system of experiment [2] is caspase-3 gene in HCT-116 cells. The experiment can be described thus: qRT-PCR expression profile of the caspase-3 gene in HCT-116 cells. In kind it is cell-based, human. Further details: dose or concentration left out as unconfirmed. The settings on record: 24 h, as compared to the negative control. An excerpt: Normally, apoptosis, or programmed cell death, is considered as a safeguard mechanism for managing stress and maintaining tissue homeostasis. It proceeds through a series of well-ordered biochemical cascades of events, which are regulated by a network of proteins. However, due to genetic and epigenetic mutations, deregulation of these proteins occurs, which results in evasion of apoptosis. This oncogenic transformation is a hallmark of human cancer, and it contributes to other tumorigenic events, including uncontrolled growth, accumulation of further genetic mutations, tumor angiogenesis and metastasis and chemotherapeutic resistance. Therefore, reinitiating selective cancer cell death is a fundamental goal in anticancer drug development. Research in cancer biology has provided fundamental insights into the apoptotic pathways and their deregulation in colon cancer. Moreover, it has identified the molecular targets for reinitiating selective tumor cell death, including antiapoptotic Bcl-2 family proteins, apoptosis inhibitors and activators of the TRAIL death receptor signaling pathway, as well as other apoptotic markers, such as caspases. Among the caspases, which play critical roles in apoptosis, are the initiators, including caspases-8 or 9, and the effectors, including caspase-3 and caspase-7. […] Thus, the real-time quantitative PCR analyses of caspase-3-gene levels following treatment with compounds 4d and 4K at a concentration […] for 24 h, were performed to investigate their potential as proapoptotic agents. […]
Total RNA was extracted from each cell culture flask using the RNeasy extraction kit (RNeasy micro kit, cat. no. 74004). […] The amount of extracted RNA was quantified by estimating the absorbance at 260 nm. The purity of the RNA was checked by measuring the ratio of the absorbance at 260 and 280 nm, where a ratio ranging from 1.8 to 2.0 was taken to be pure. […]
Quantitative real-time PCR was carried out with the Thermal Cycler Rotorgene Real-Time System II (Rotorgene, South Korea) with the SYBR kit. […]
For orientation: Quantitative PCR measures a nucleic acid by following its amplification.

In general, EC50 refers to the concentration that produces a half-maximal response. Molecule `COc1cc(C2C(C#N)=C(N)OC(C)=C2C(=O)OCc2ccccc2)cc(OC)c1OC` (centres unmarked) [4d, 6-Amino-5-cyano-2-methyl-4-(3,4,5-trimethoxy-phenyl)-4H-pyran-3-carboxylic acid benzyl ester] yielded an EC50 in experiment [1] of 149 ± 16 µM. For the same molecule, the “IZ (mm)” value in the experiment with S. enteric (ATCC 43972) came out at 7.0 ± 0.0 mm. For the same molecule, the “caspase-3 gene transcription level, fold increase” value in experiment [2] was determined as 2.55 fold.
`CC1=C(C(=O)OCc2ccccc2)C(c2ccc(C#N)cc2)C(C#N)=C(N)O1` (centres unmarked) [4k, 6-Amino-5-cyano-4-(4-cyano-phenyl)-2-methyl-4H-pyran-3-carboxylic acid benzyl ester] yielded an EC50 in experiment [1] of 1560 ± 102 µM. Further, in experiment [2], the “caspase-3 gene transcription level, fold increase” value is recorded as 4.62 fold.
